# Assay results from patent EP2913333A1 (priority 2014, dated 2015).
# Counter-ions that a name gives are not always drawn. Like-named read-outs stand apart in the source and are kept apart here.
# Assays:
# [1] = molecular target: T1, E. feacalis DltA (Enterococcus faecalis, UniProt Q830N0); experiment: biochemical
# T1 sequence (Q830N0 1-506): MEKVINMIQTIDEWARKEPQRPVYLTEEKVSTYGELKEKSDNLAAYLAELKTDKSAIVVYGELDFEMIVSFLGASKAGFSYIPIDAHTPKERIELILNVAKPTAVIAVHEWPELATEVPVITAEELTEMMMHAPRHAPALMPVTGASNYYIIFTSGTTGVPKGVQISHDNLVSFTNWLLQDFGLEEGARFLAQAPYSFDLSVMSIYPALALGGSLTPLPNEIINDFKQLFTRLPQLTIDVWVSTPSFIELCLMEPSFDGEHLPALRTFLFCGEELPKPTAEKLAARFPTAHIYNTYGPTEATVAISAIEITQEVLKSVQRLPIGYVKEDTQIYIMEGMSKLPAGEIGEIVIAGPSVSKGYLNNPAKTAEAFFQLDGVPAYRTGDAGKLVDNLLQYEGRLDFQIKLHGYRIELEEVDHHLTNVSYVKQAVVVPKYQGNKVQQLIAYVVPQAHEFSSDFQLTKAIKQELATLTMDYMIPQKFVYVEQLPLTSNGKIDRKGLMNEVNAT
# Description: (§1) To this end, recombinant proteins DltA were expressed and purified after cloning of the genes of S. aureus, E. faecalis, E. faecium and S. agalactiae as described thereafter. The capacity of the compounds of the invention to inhibit DltA enzymatic activity was assessed using the DltA assays as described below: • The dltA gene was amplified from chromosomal DNA of S. aureus, E. faecalis, E. faecium and S. agalactiae and introduced into E. coli BL21 (Invitrogen, Carlsbad, CA) following manufacturer's instruction. Bacteria were grown at 37°C under aerobic conditions and isopropyl-beta-D-thiogalactopyranoside (IPTG) was added to 0.5-1 mM when OD600 of the bacterial culture had reached 0.5. After a further incubation for 3 hours, cells were harvested by centrifugation. Purification of the recombinant DltA protein was performed by affinity chromatography on nickel-nitrilotriacetic acid (Ni-NTA) column following manufacturer's instructions (Qiagen). Fractions containing recombinant DltA protein were adjusted to 50% glycerol and stored at -20°C until use.
# (§2) The binding potency of the inhibitors against DltA enzyme was assessed by IC50 determination in an in vitro DltA activity assay. The assay buffer "AB" contained 50 mM Hepes pH8.0, 10mM MgCl2, 50mM KCI, 0.012% Triton-X100, 10mM DTT and 100nM Myelin-basic protein. The following components were added in a white polystyrene Costar plate up to a final volume of 30µL: 3µL DMSO, or inhibitor dissolved in DMSO and 27µL DltA enzyme in AB. After 30min of preincubation at room temperature, 30µL of Substrates mix in AB were added in each well to a final volume of 60µL. This reaction mixture was then composed of DltA (produced in house from S. aureus, E. faecalis, E. faecium and S. agalactiae), 0.5mM D-Alanine (Sigma), 0.5-5µM ATP (Sigma) and 0.05 u/ml inorganic pyrophosphatase (Sigma) in assay buffer. After typically 1-2hours of incubation at room temperature (conversion rate around 30%), 30µL of the revelation mix were added to a final volume of 90µL, including the following constituents at the respective final concentrations: 10000 u/ml luciferase (Sigma), 30µM D-luciferin (Sigma), 100µM N-acetylcysteamine (Aldrich). Luminescence intensity was immediately measured on a Fluostar Optima (BMG) (excitation 360nm, emission 520nm) and converted into inhibition percentages.
# (§3) For compounds interfering with the luminescent signal (quenching), the same experiment without DltA enzyme was performed to allow quenching determination and correction.
# [2] = molecular target: T2, S. Agalactiae DltA (Streptococcus agalactiae serotype III, UniProt Q8VM67); experiment: biochemical
# T2 sequence (Q8VM67 1-511): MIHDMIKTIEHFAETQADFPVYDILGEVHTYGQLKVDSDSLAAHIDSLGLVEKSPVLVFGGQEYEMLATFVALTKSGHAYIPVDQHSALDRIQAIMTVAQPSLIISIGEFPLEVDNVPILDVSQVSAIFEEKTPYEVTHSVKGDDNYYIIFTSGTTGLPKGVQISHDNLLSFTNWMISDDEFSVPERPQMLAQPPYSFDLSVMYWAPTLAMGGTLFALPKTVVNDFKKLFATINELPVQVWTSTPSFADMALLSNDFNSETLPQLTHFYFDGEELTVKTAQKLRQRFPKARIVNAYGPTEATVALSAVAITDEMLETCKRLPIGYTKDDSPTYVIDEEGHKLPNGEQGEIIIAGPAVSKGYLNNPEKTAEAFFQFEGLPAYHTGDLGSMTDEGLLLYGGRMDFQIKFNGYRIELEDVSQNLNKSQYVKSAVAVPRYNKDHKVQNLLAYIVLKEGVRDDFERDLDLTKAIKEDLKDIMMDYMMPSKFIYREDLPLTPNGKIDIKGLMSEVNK
# Description: as §1, §2, §3
# [3] = molecular target: T3, S. aureus DltA (Staphylococcus aureus, UniProt Q2FZW6); experiment: in vitro DltA activity assay (luminescence, IC50 determination); format: biochemical
# T3 construct: made in house; host or cells: E. coli BL21
# T3 sequence (Q2FZW6 1-485): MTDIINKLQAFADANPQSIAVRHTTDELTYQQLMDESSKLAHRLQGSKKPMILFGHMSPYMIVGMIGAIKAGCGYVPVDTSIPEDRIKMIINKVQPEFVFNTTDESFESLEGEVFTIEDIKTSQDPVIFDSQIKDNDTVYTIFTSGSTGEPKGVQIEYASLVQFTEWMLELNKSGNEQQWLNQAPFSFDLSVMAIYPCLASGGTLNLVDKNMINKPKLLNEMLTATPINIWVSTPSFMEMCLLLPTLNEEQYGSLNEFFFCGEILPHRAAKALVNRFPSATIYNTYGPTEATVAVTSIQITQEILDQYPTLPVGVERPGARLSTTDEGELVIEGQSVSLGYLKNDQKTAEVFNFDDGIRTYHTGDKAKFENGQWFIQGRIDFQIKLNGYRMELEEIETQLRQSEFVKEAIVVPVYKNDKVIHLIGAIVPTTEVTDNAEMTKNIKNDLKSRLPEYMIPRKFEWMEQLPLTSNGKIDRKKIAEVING
# Description: as §1, with “The effect of the compounds of the invention on DltA enzymes has been based on the measure of their inhibition of DltA activity in vitro. To” for “To”
# as §2, §3
# [4] = molecular target: T4, E. feacium DltA (Enterococcus faecium, UniProt Q3XZT7); experiment: as above; format: biochemical
# T4 sequence (Q3XZT7 1-504): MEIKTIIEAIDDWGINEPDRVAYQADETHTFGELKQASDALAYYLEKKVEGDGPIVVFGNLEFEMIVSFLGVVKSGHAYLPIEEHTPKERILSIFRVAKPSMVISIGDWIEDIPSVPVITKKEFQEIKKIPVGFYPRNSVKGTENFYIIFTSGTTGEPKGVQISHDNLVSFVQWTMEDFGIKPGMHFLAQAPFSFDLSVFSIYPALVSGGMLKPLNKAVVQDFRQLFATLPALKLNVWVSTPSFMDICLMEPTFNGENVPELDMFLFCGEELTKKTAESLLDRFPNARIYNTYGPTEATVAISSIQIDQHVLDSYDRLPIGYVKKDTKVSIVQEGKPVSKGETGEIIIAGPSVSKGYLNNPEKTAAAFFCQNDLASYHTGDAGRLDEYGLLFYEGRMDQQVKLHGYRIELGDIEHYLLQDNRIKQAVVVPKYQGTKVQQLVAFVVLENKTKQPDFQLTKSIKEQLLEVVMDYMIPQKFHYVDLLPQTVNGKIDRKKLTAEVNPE
# Description: as §1, with “The effect of the compounds of the invention on DltA enzymes has been based on the measure of their inhibition of DltA activity in vitro. To” for “To”
# as §2, §3
# [5] = recombinant DltA, 30min preincubation at room temperature, 0.5mM D-Alanine, 0.5-5µM ATP, read-out: E. feacium DltA IC50
Compound,IC50 [1],IC50 [2],IC50 [3],"IC50 [4, 5]",IC50 [4]
"O=c1[nH]cnc2c(-c3ccc4c(c3)ncn4C3CCCCC3)cn(C3CCCC(O)C3)c12 (racemic) [Example 70A, 7-(1-Cyclohexyl-1H-benzimidazol-5-yl)-5-(3-hydroxy-cyclohexyl)-3,5-dihydro-pyrrolo[3,2-d]pyrimidin-4-one]",570 nM,2400 nM,660 nM,920 nM,–
"O=c1[nH]cnc2c(-c3ccc4c(c3)ncn4C3CCCCC3)cn(C3CCC(O)C3)c12 (racemic) [Example 71A, 7-(1-Cyclohexyl-1H-benzimidazol-5-yl)-5-(3-hydroxy-cyclopentyl)-3,5-dihydro-pyrrolo[3,2-d]pyrimidin-4-one]",360 nM,2700 nM,360 nM,890 nM,–
"O=c1[nH]cnc2c(-c3ccc4c(c3)ncn4C3CCCCC3)sc(N3CC[C@H](CO)C3)c12 [Example 7, 7-(1-Cyclohexyl-1H-benzoimidazol-5-yl)-5-((S)-3-hydroxymethyl-pyrrolidin-1-yl)-3H-thieno[3,4-d]pyrimidin-4-one]",37 nM,3200 nM,70 nM,120 nM,–
"O=c1[nH]cnc2c(-c3ccc4c(c3)ncn4C3CCCCC3)sc(N3CCC(CCO)C3)c12 (stereo not shown) [Example 11, 7-(1-Cyclohexyl-1H-benzoimidazol-5-yl)-5-[3-(2-hydroxy-ethyl)-pyrrolidin-1-yl]-3H-thieno[3,4-d]pyrimidin-4-one]",120 nM,5400 nM,140 nM,190 nM,–
"O=c1[nH]cnc2c(-c3ccc4c(c3)ncn4C3CCCCC3)sc(N3CCC(CO)(CO)C3)c12 [Example 13, 5-(3,3-Bis-hydroxymethyl-pyrrolidin-1-yl)-7-(1-cyclohexyl-1H-benzoimidazol-5-yl)-3H-thieno[3,4-d]pyrimidin-4-one]",41 nM,980 nM,44 nM,140 nM,–
"O=c1[nH]cnc2c(-c3ccc4c(c3)ncn4C3CCCCC3)sc(N3CC4C(O)C4C3)c12 (stereo not shown) [Example 17, 7-(1-Cyclohexyl-1H-benzoimidazol-5-yl)-5-(6-hydroxy-3-aza-bicyclo[3.1.0]hex-3-yl)-3H-thieno[3,4-d]pyrimidin-4-one]",85 nM,2200 nM,220 nM,190 nM,–
"O=c1[nH]cnc2c(-c3ccc4c(c3)ncn4C3CCCCC3)sc(N3CC4CNCC4C3)c12 (stereo not shown) [Example 25, 7-(1-Cyclohexyl-1H-benzoimidazol-5-yl)-5-(hexahydro-pyrrolo[3,4-c]pyrrol-2-yl)-3H-thieno[3,4-d]pyrimidin-4-one hydrochloride]",22 nM,630 nM,39 nM,88 nM,–
"O=c1[nH]cnc2c(-c3ccc4c(c3)ncn4C3CCCCC3)sc(N3CCNCC3)c12 [Example 28, 7-(1-cyclohexyl-1H-benzoimidazol-5-yl)-5-piperazin-1-yl-3H-thieno[3,4-d]pyrimidin-4-one hydrochloride]",48 nM,1200 nM,150 nM,160 nM,–
"O=c1[nH]cnc2c(-c3ccc4c(c3)ncn4C3CCCCC3)sc(N3C[C@@H]4[C@@H](CO)[C@@H]4C3)c12 [Example 30, 7-(1-Cyclohexyl-1H-benzimidazol-5-yl)-5-((1R,5S,6R)-6-hydroxymethyl-3-aza-bicyclo[3.1.0]hex-3-yl)-3H-thieno[3,4-d]pyrimidin-4-one]",160 nM,2000 nM,220 nM,320 nM,–
"O=c1[nH]cnc2c(-c3ccc4c(c3)ncn4C3CCCCC3)sc(N3CC4CNCC4(CO)C3)c12 (stereo not shown) [Example 34, 7-(1-cyclohexyl-1H-benzoimidazol-5-yl)-5-hydroxymethyl-hexahydro-pyrrolo[3,4-c]pyrrol-2-yl)-3H-thieno[3,4-d]pyrimidin-4-one hydrochloride]",14 nM,400 nM,27 nM,–,61 nM
"O=c1[nH]cnc2c(-c3ccc4c(c3)ncn4C3CCCCC3)sc(N3C[C@H](CO)[C@@H](CO)C3)c12 [Example 35, 5-((3R,4R)-3,4-Bis-hydroxymethyl-pyrrolidin-1-yl)-7-(1-cyclohexyl-1H-benzoimidazol-5-yl)-3H-thieno[3,4-d]pyrimidin-4-one]",39 nM,870 nM,54 nM,93 nM,–
CC1CCCC(n2cnc3cc(-c4sc(N5CC[C@H](CO)C5)c5c(=O)[nH]cnc45)ccc32)C1 (stereo partly shown) [Example 48],–,–,68 nM,110 nM,–
